Assay [1] concerns esterase derived from Ideonella sp. 0-0013 strain. The assay can be described thus: Decomposing activities of methyl palmitate or methyl 3-hydroxypalmitate (Test Example 2, substrate selectivity). In kind it is biochemical. As to conditions: for Decomposition: 0.5 mg of substrate; for Activity ratio: methyl 3-hydroxypalmitate = 100.0. As to the method: The culture broth obtained by cultivating the strain in the same manner as that in Example 1 was centrifuged to obtain a supernatant and microbial cells. The supernatant or the microbial cells were suspended in 200 μL of 10 mM potassium phosphate buffer (pH 7.0) containing 0.5 mg of methyl 3-hydroxypalmitate, and the resultant was allowed to react at 43° C. for 12 hours.
After completion of the reaction, 500 μL of dichloromethane was added to the reaction mixture to extract 3-hydroxypalmitic acid. The extract was subjected to gas chromatography (Stabilwax-DA, 30 m×0.53 mm×0.25 μm) to measure the decomposing activity of methyl 3-hydroxypalmitate.
0.5 mg of methyl palmitate or methyl 3-hydroxypalmitate was reacted and analyzed in the same manner as that in Example 1 and the decomposing activities of the compounds were measured in each case.

Assay [2] has the same test system. The assay can be described thus: Inhibition, activation and stabilization of the esterase. In kind it is biochemical. Here is the method: Methyl 3-hydroxypalmitate is detected by gas chromatography with a column of Stabilwax-DA, 30 m×0.53 mm×0.25 μm. The 3-hydroxypalmitic acid generated by hydrolysis of the ester can be detected by the same gas chromatography as described above. • (2) Optimal temperature for functioning: The optimal temperature of the enzyme of the present invention is 37° C. • (3) Optimal pH and stable pH range: pH 7 or more to pH 10 or less. • (4) Temperature stability: 97% of the enzyme is stable at 43° C., 54% of the enzyme is stable at 50° C., and 38% of the enzyme is stable at 60° C. • (5) Inhibition, activation, and stabilization: Activated by sodium ion and potassium ion, and inhibited by strontium ion, iron ion (divalent), and methyl palmitate. • (6) Molecular weight: About 46,500 Da (by SDS-PAGE), about 41,000 Da (by a gel filtration method). • (7) Isoelectric point: pI 4 (by polyacrylamide gel isoelectric focusing method).

Regarding `CCCCCCCCCCCCCC(O)CC(=O)OC` (stereo not shown) [Methyl 3-hydroxypalmitate, methyl 3-hydroxypalmitate], in assay [1], the “hydrolytic activity relative to that for methyl palmitate” value was “about 5 times”, the Decomposition came to 50.3% and the Activity ratio worked out at 100.0.

On to `CCCCCCCCCCCCCCCC(=O)OC` [Methyl palmitate, methyl palmitate], for which, in assay [1], the Decomposition was 10.3% and the Activity ratio amounted to 20.5. For the same compound, the “Inhibition, activation, and stabilization (effect on the esterase)” value (shortened to “Inhibition, activation”) in assay [2] is on record as “inhibited”.

`[Fe+2]` [iron ion (divalent)]: the “Inhibition, activation” value in assay [2] is reported as “inhibited”.

`[K+]` [potassium ion]: the “Inhibition, activation” value in assay [2] is listed as “Activated”.

For `[Na+]` [sodium ion], the “Inhibition, activation” value in assay [2] was “Activated”.

For `[Sr+2]` [strontium ion], in assay [2], the “Inhibition, activation” value is given as “inhibited”.

For the origin of these results see patent US7341857B2, “Production of beta-hydroxypalmitate methyl esterase from Ideonella sp.0-0013 (FERM BP-08660)” (Incorporated Administrative Agency National Agriculture and …, priority 2003, dated 2008).
